This is an account of results in ChEMBL document CHEMBL4368907 (J Med Chem, 2019).

In assay [1] the target is T1, Cholecystokinin receptor type A (Homo sapiens, UniProt P32238).
T1 sequence (P32238 whole entry): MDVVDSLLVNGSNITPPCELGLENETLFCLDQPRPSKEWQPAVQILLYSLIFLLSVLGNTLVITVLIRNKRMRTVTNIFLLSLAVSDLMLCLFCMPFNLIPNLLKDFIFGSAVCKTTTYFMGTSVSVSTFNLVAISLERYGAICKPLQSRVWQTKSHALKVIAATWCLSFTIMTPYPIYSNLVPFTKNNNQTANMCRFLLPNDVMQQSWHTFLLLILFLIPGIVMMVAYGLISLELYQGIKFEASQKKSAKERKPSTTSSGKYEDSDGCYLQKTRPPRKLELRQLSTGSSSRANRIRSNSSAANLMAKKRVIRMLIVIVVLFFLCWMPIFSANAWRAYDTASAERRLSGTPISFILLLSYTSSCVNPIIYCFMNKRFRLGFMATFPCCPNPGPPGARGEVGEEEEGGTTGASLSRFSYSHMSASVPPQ
In words: Displacement of [125I]-CCK-8 from human CCK1R expressed in human 1321N1 cell membranes after 2 hrs by SPA assay.

Assay [2] concerns the target T1, Cholecystokinin receptor type A. Nature of the assay: Agonist activity at human CCK1R expressed in human 1321N1 cells assessed as IP1 accumulation after 1 hr by HTRF assay. It counts as functional, cell-based. (In general: TR-FRET usually uses a lanthanide donor and a delayed reading to cut background.)
The target of assay [3] is T2, Gastrin/cholecystokinin type B receptor (Homo sapiens, UniProt P32239).
T2 sequence (P32239 whole entry): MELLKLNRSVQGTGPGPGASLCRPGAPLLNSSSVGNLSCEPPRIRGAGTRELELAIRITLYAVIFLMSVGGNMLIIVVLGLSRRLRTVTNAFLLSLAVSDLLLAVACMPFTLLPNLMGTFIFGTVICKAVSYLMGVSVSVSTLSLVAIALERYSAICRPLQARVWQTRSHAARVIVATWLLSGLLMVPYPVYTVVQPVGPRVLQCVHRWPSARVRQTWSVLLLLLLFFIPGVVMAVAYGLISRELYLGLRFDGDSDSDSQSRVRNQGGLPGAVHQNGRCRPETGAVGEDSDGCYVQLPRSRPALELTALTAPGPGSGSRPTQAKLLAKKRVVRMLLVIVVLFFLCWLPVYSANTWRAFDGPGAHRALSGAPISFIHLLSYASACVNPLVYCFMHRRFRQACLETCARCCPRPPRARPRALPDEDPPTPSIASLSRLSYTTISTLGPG
Nature of the assay: Displacement of [125I]-CCK-8 from human CCK2R expressed in human 1321N1 cell membranes after 2 hrs by SPA assay.

Assay [4] has as its target T2, Gastrin/cholecystokinin type B receptor. Nature of the assay: Agonist activity at human CCK2R expressed in human 1321N1 cells assessed as IP1 accumulation after 1 hr by HTRF assay. It counts as functional, cell-based.

Numbered stars: 1 amine (or outer) side, 2 acyl side, 3 side chain; on linkers, the order of the positions; unused ones are H or OH. Square brackets hold non-standard residues; d marks the D form. Side chains are listed from the residue outwards. Peptide text beside a SMILES is read from it. * marks the point of attachment. Phe(4-CH2SO3H) = N[C@@H](Cc1ccc(CS(=O)(=O)O)cc1)C(=O)O; sY = N[C@@H](Cc1ccc(OS(=O)(=O)O)cc1)C(=O)O; C18 diacid = O=C(O)CCCCCCCCCCCCCCCCC(=O)*; NMe1Nal = CN[C@@H](Cc1cccc2ccccc12)C(=O)O; γGlu = O=C(O)[C@H](CCC(=O)[*:2])N[*:1]; Glutaryl = O=C(CCCC(=O)[*:2])[*:1]; NMeF = CN[C@@H](Cc1ccccc1)C(=O)O; NMeD = CN[C@@H](CC(=O)O)C(=O)O; NH(2-Me-phenyl) = Cc1ccccc1N*; Nle = CCCC[C@H](N)C(=O)O; Dap = NC[C@H](N)C(=O)O; AEEA = NCCOCCOCC(=O)O; CO = O=C([*:1])[*:2]; βAla = NCCC(=O)O

What is called IC50 is the concentration that inhibits the measured activity by half. As usually defined, the EC50 is the midpoint of the concentration-response curve. For `CCCC[C@H](NC(=O)[C@H](CNC(=O)CCCC(=O)O)NC(=O)[C@H](CC(=O)O)NC(=O)COCCOCCNC(=O)COCCOCCNC(=O)CC[C@H](NC(=O)CCCCCCCCCCCCCCCCC(=O)O)C(=O)O)C(=O)NCC(=O)N[C@@H](Cc1c[nH]c2ccccc12)C(=O)N[C@@H](CCCC)C(=O)N[C@@H](CC(=O)O)C(=O)N[C@@H](Cc1ccccc1)C(N)=O` ({C18 diacid-γGlu-AEEA-AEEA}-D[Dap](Glutaryl)[Nle]GW[Nle]DF-NH2), the results for the IC50 in assay [1] and in assay [3] were 832 nM and 5.75 nM, respectively. In addition, the EC50 in assay [2] is 229 nM; in assay [4], 0.38 nM.

In the case of `CCCC[C@H](NC(=O)[C@H](Cc1c[nH]c2ccccc12)NC(=O)CNC(=O)[C@H](CC(C)C)NC(=O)[C@H](Cc1ccc(CS(=O)(=O)O)cc1)NC(=O)[C@H](CC(=O)O)NC(=O)COCCOCCNC(=O)COCCOCCNC(=O)CC[C@H](NC(=O)CCCCCCCCCCCCCCCCC(=O)O)C(=O)O)C(=O)N[C@@H](CC(=O)O)C(=O)N[C@@H](Cc1ccccc1)C(N)=O` ({C18 diacid-γGlu-AEEA-AEEA}-D[Phe(4-CH2SO3H)]LGW[Nle]DF-NH2), the IC50 in assay [1] was 0.245 nM; in assay [3], 0.891 nM. The EC50 is 0.0676 nM in assay [2] and 0.447 nM in assay [4].

As to `CCCC[C@H](NC(=O)[C@H](Cc1c[nH]c2ccccc12)NC(=O)CNC(=O)[C@H](CCC(=O)O)NC(=O)[C@H](Cc1ccc(OS(=O)(=O)O)cc1)NC(=O)[C@H](CC(=O)O)NC(=O)COCCOCCNC(=O)COCCOCCNC(=O)CC[C@H](NC(=O)CCCCCCCCCCCCCCCCC(=O)O)C(=O)O)C(=O)N[C@@H](CC(=O)O)C(=O)N[C@@H](Cc1ccccc1)C(N)=O` ({C18 diacid-γGlu-AEEA-AEEA}-D[sY]EGW[Nle]DF-NH2), the figures for the IC50 in assay [1] and in assay [3] were 1.26 nM and 0.158 nM, respectively. For the same molecule, the EC50 in assay [2] was 0.166 nM; in assay [4], 0.295 nM.

What is called pIC50 is the IC50 on a negative log10 scale, so that one unit is a factor of ten. A low value points to a high IC50. The term pEC50 denotes the negative decadic logarithm of the EC50, by convention in mol/L. As to `CC(C)C[C@H](NC(=O)[C@H](Cc1ccc(OS(=O)(=O)O)cc1)NC(=O)[C@H](CC(=O)O)NC(=O)COCCOCCNC(=O)COCCOCCNC(=O)CC[C@H](NC(=O)CCCCCCCCCCCCCCCCC(=O)O)C(=O)O)C(=O)NCC(=O)N[C@@H](Cc1c[nH]c2ccccc12)C(=O)N[C@@H](Cc1ccccc1)C(=O)N(C)[C@@H](CC(=O)O)C(=O)N(C)[C@@H](Cc1ccccc1)C(N)=O` ({C18 diacid-γGlu-AEEA-AEEA}-D[sY]LGWF[NMeD][NMeF]-NH2), the pIC50 is 7.79 in assay [1] and less than 5 in assay [3]. The pEC50 in assay [2] is 8.79; in assay [4], less than 6.

For `CCCC[C@H](NC(=O)[C@H](Cc1c[nH]c2ccccc12)NC(=O)CNC(=O)[C@H](CC(C)C)NC(=O)[C@H](Cc1ccc(OS(=O)(=O)O)cc1)NC(=O)[C@H](CC(=O)O)NC(=O)COCCOCCNC(=O)COCCOCCNC(=O)CC[C@H](NC(=O)CCCCCCCCCCCCCCCCC(=O)O)C(=O)O)C(=O)N1CCC[C@H]1C(=O)N(C)[C@@H](Cc1ccccc1)C(N)=O` ({C18 diacid-γGlu-AEEA-AEEA}-D[sY]LGW[Nle]P[NMeF]-NH2), the pIC50 in assay [1] is 7.39; in assay [3], 5.27. The pEC50 in assay [2] is listed as 6.61; in assay [4] it was less than 6.

With `CCCC[C@H](NC(=O)[C@H](Cc1c[nH]c2ccccc12)NC(=O)CNC(=O)[C@H](CC(C)C)NC(=O)[C@H](Cc1ccc(OS(=O)(=O)O)cc1)NC(=O)[C@H](CC(=O)O)NC(=O)COCCOCCNC(=O)COCCOCCNC(=O)CC[C@H](NC(=O)CCCCCCCCCCCCCCCCC(=O)O)C(=O)O)C(=O)N(C)[C@@H](CC(=O)O)C(=O)N(C)[C@@H](Cc1cccc2ccccc12)C(N)=O` ({C18 diacid-γGlu-AEEA-AEEA}-D[sY]LGW[Nle][NMeD][NMe1Nal]-NH2), the IC50 in assay [1] was 0.115 nM; in assay [3], 603 nM. Besides, the results for the EC50 in assay [2] and in assay [4] were 0.501 nM and 16.6 nM, respectively.

With `CCCC[C@H](NC(=O)[C@H](Cc1c[nH]c2ccccc12)NC(=O)CCNC(=O)[C@H](CC(C)C)NC(=O)[C@H](Cc1ccc(OS(=O)(=O)O)cc1)NC(=O)[C@H](CC(=O)O)NC(=O)COCCOCCNC(=O)COCCOCCNC(=O)CC[C@H](NC(=O)CCCCCCCCCCCCCCCCC(=O)O)C(=O)O)C(=O)N[C@@H](CC(=O)O)C(=O)N[C@@H](Cc1ccccc1)C(N)=O` ({C18 diacid-γGlu-AEEA-AEEA}-D[sY]L[βAla]W[Nle]DF-NH2), the IC50 in assay [1] is 219 nM; in assay [3], 0.398 nM. Also, the EC50 is 117 nM in assay [2] and 0.316 nM in assay [4].

In the case of `CCCC[C@H](NC(=O)[C@H](Cc1c[nH]c2ccccc12)NC(=O)[C@H](CCC(=O)O)NC(=O)[C@H](CCCC)NC(=O)[C@H](Cc1ccc(OS(=O)(=O)O)cc1)NC(=O)[C@H](CC(=O)O)NC(=O)COCCOCCNC(=O)COCCOCCNC(=O)CC[C@H](NC(=O)CCCCCCCCCCCCCCCCC(=O)O)C(=O)O)C(=O)N[C@@H](CC(=O)O)C(=O)N[C@@H](Cc1ccccc1)C(N)=O` ({C18 diacid-γGlu-AEEA-AEEA}-D[sY][Nle]EW[Nle]DF-NH2), the IC50 in assay [1] was 3980 nM; in assay [3], 0.151 nM. Moreover, the values for the EC50 in assay [2] and in assay [4] were greater than 1000 nM and 0.437 nM, respectively.

`CCCC[C@H](NC(=O)[C@H](Cc1ccc(OS(=O)(=O)O)cc1)NC(=O)[C@H](CC(=O)O)NC(=O)COCCOCCNC(=O)COCCOCCNC(=O)CC[C@H](NC(=O)CCCCCCCCCCCCCCCCC(=O)O)C(=O)O)C(=O)NCC(=O)N[C@@H](Cc1c[nH]c2ccccc12)C(=O)N[C@H](C(=O)N[C@@H](CC(=O)O)C(=O)N[C@@H](Cc1ccccc1)C(N)=O)[C@@H](C)CC` ({C18 diacid-γGlu-AEEA-AEEA}-D[sY][Nle]GWIDF-NH2): the IC50 in assay [1] was 0.794 nM; in assay [3] it was 2.14 nM. The EC50 in assay [2] is 0.11 nM; in assay [4], 0.631 nM.

In the case of `CCCC[C@H](NC(=O)[C@H](Cc1ccc(OS(=O)(=O)O)cc1)NC(=O)[C@H](CC(=O)O)NC(=O)COCCOCCNC(=O)COCCOCCNC(=O)CC[C@H](NC(=O)CCCCCCCCCCCCCCCCC(=O)O)C(=O)O)C(=O)NCC(=O)N[C@@H](Cc1c[nH]c2ccccc12)C(=O)N[C@@H](CCCCNC(=O)Nc1ccccc1C)C(=O)N(C)[C@@H](CC(=O)O)C(=O)N(C)[C@@H](Cc1ccccc1)C(N)=O` ({C18 diacid-γGlu-AEEA-AEEA}-D[sY][Nle]GWK([CO-NH(2-Me-phenyl)])[NMeD][NMeF]-NH2), the IC50 in assay [1] is 0.479 nM; in assay [3], greater than 10000 nM. In addition, the EC50 in assay [2] is 0.115 nM; in assay [4], greater than 1000 nM.

For `CCCC[C@H](NC(=O)[C@H](Cc1ccc(OS(=O)(=O)O)cc1)NC(=O)[C@H](CC(=O)O)NC(=O)COCCOCCNC(=O)COCCOCCNC(=O)CC[C@H](NC(=O)CCCCCCCCCCCCCCCCC(=O)O)C(=O)O)C(=O)NCC(=O)N[C@@H](Cc1c[nH]c2ccccc12)C(=O)N[C@@H](CCC(N)=O)C(=O)N[C@@H](CC(=O)O)C(=O)N[C@@H](Cc1ccccc1)C(N)=O` ({C18 diacid-γGlu-AEEA-AEEA}-D[sY][Nle]GWQDF-NH2), the IC50 is 0.933 nM in assay [1] and 2.04 nM in assay [3]. The EC50 was 0.162 nM in assay [2] and 0.417 nM in assay [4].
